Reference: patent publication US20050143382A1 (4SC AG, priority 2003, published 2005)

Legend:
IGF-1 R = molecular target: T1, IGF-1 R (Homo sapiens, UniProt P08069); assay: 33PanQinase protein kinase activity assay, IGF-1 R; format: biochemical; settings: recombinant human kinase, 1 μM ATP
T1 construct: made in house; host or cells: Sf9 insect cells (baculovirus)
Experimental: (§1) The effect of the farazanopyrazine derivatives was tested on recombinant, human protein kinases. All protein kinases were expressed in Sf9 insect cells as human recombinant GST-fusion proteins or as His-tagged proteins by means of the baculovirus expression system. Protein kinases were purified by affinity chromatography using either GSH-agarose or Ni-NTH-agarose. The purity and identity of each was checked by SDS-PAGE/silver staining and by western blot analysis with specific antibodies.
(§2) A proprietary protein kinase assay (^33 PanQinase® Activity Assay) was used for measuring the kinase activity. All kinase assays were performed in 96-well FlashPlates™ in a 50 μl reaction volume. The assay for all enzymes contained 60 mM HEPES-NaOH, pH 7.5, 3 mM MgCl2, 3 mM MnCl2, 3 μM Na-orthovanadate, 1.2 mM DTT, 50 μg/ml PEG20000 and 1 μM [γ-^33P]-ATP (approx. 5×10^5 cpm per well).
(§3) The reaction cocktails were incubated at 30° C. for 80 minutes. The reaction was stopped with 50 μl of 2% (v/v) H3PO4, plates were aspirated and washed two times with 200 μl of 0.9% (w/v) NaCl. Incorporation of 33Pi was determined with a microplate scintillation counter. All assays were performed with a BeckmanCoulter/Sagian robotic system.

SRC kinase = molecular target: T2, SRC kinase (Homo sapiens, UniProt P12931); assay: 33PanQinase protein kinase activity assay, SRC; format: biochemical; settings: recombinant human kinase, 1 μM ATP
T2 construct: made in house; host or cells: Sf9 insect cells (baculovirus)
T2 sequence (P12931 whole entry): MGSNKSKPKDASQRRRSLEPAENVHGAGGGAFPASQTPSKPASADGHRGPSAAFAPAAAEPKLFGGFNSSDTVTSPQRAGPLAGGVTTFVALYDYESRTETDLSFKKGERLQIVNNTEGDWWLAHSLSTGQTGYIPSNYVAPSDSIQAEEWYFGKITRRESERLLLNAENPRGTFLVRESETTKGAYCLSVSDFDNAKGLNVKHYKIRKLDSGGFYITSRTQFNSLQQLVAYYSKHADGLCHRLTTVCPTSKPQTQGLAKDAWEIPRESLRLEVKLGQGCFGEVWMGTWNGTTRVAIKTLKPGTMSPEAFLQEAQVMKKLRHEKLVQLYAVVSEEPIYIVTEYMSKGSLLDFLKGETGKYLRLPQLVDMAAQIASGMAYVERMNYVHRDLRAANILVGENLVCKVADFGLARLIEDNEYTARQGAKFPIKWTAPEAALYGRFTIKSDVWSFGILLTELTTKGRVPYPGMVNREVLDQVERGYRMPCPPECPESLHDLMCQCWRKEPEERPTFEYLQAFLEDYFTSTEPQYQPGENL
Experimental: as §1, §2, §3

T1 sequence (P08069 31-1367): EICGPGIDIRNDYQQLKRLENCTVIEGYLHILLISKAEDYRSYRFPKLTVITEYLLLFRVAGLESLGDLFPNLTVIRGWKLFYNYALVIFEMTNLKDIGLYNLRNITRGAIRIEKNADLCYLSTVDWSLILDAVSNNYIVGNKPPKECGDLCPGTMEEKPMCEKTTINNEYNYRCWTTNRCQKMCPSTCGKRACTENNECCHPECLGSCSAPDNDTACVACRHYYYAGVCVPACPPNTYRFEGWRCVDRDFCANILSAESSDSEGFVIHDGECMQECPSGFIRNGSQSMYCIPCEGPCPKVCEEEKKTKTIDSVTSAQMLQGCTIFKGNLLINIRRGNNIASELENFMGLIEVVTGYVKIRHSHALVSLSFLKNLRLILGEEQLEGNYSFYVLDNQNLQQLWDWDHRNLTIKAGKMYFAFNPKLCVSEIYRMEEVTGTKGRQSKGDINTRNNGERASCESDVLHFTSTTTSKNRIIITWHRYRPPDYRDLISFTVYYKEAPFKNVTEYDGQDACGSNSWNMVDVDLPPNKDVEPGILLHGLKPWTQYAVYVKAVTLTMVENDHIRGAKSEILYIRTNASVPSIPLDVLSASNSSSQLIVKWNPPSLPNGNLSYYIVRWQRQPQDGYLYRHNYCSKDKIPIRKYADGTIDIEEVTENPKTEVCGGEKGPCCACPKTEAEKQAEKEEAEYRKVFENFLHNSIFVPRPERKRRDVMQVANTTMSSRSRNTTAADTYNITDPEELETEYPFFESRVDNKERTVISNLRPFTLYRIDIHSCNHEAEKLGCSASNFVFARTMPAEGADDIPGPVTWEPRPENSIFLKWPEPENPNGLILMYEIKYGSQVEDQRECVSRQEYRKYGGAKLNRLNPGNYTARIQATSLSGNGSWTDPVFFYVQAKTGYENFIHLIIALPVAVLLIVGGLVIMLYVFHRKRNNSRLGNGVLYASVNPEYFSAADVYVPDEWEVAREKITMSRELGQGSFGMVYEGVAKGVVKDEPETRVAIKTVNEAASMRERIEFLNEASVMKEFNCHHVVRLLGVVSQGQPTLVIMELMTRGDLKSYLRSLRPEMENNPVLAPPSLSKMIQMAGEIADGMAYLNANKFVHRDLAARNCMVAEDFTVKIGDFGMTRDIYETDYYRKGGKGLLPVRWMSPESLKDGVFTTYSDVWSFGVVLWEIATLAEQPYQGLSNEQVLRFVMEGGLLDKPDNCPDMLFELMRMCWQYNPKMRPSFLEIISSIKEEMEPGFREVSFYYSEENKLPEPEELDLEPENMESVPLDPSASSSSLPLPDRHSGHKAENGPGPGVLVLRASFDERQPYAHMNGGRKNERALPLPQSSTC

IC50 (SRC kinase) [nM] | Compound | IC50 (IGF-1 R) [nM]
< 1000 | Cc1cc(C)c([N+](=O)[O-])cc1-c1ccc(C=NNc2nc3nonc3nc2Nc2ccccc2F)o1 [Example 29, (6-{N′-[5-(2,4-Dimethyl-5-nitro-phenyl)-furan-2-ylmethylene]-hydrazino}-[1,2,5]oxadiazolo[3,4-b]pyrazin-5-yl)-(2-fluoro-phenyl)-amine] | < 1000
< 1000 | Cc1ccc(Nc2nc3nonc3nc2NN=Cc2ccc(-c3cc(C)cc([N+](=O)[O-])c3C)o2)cc1 [Example 33, (6-[N′-[5-(2,5-Dimethyl-3-nitro-phenyl)-furan-2-ylmethylene]-hydrazino}-[1,2,5]oxadiazolo[3,4-b]pyrazin-5-yl)-p-tolyl-amine] | 
< 1000 | O=[N+]([O-])c1cc(-c2ccc(C=NNc3nc4nonc4nc3Nc3cccc(C(F)(F)F)c3)o2)ccc1Cl [Example 36, (6-{N-[5-(4-Chloro-3-nitro-phenyl)-furan-2-ylmethylene]-hydrazino}-[1,2,5]oxadiazolo [3,4-b]pyrazin-5-yl)-(3-trifluoromethyl-phenyl)-amine] | < 1000
< 1000 | CCOC(=O)c1ccc(Nc2nc3nonc3nc2NN=Cc2cccc([N+](=O)[O-])c2O)cc1 [Example 37, 4-{6-[N′-(2-Hydroxy-3-nitro-benzylidene)-hydrazino]-[1,2,5]oxadiazolo[3,4-b]pyrazin-5-ylamino}-benzoic Acid Ethyl Ester] | 
< 1000 | O=[N+]([O-])c1ccc(-c2ccc(C=NNc3nc4nonc4nc3Nc3ccc(F)cc3)o2)cc1 [Example 39, (4-Fluoro-phenyl)-(6-{N′-[5-(4-nitro-phenyl)-furan-2-ylmethylene]-hydrazino}-[1,2,5]oxadiazolo[3,4-b]pyrazin-5-yl)-amine] | < 1000
< 1000 | O=c1[nH]c2ccc(Nc3nc4nonc4nc3NN=Cc3cc(I)cc(I)c3OCc3ccc(Cl)cc3Cl)cc2[nH]1 [Example 55, 5-(6-{N′-[2-(2,4-Dichloro-benzyloxy)-3,5-diiodo-benzylidene]-hydrazino}-[1,2,5]oxadiazolo[3,4-b]pyrazin-5-ylamino)-1,3-dihydro-benzoimidazol-2-one] | < 1000
< 1000 | C(=NNc1nc2nonc2nc1Nc1ccccc1)c1cc2ccccc2o1 [Example 88, [6-(N′-Benzofuran-2-ylmethylene-hydrazino)-(1,2,5]oxadiazolo[3,4-b]pyrazin-5-yl]-phenyl-amine] | 
< 1000 | O=[N+]([O-])c1cccc(-c2ccc(C=NNc3nc4nonc4nc3Nc3ccccc3)o2)c1 [Example 90, (6-{N′-[5-(3-Nitro-phenyl)-furan-2-ylmethylene]-hydrazino}-[1,2,5]oxadiazolo [3,4-b]pyrazin-5-yl)-phenyl-amine] | 
< 1000 | O=[N+]([O-])c1cccc(-c2ccc(C=NNc3nc4nonc4nc3Nc3ccc(F)cc3)o2)c1 [Example 135, (4-Fluoro-phenyl)-(6-{N′-[5-(3-nitro-phenyl)-furan-2-ylmethylene]-hydrazino}-[1,2,5]oxadiazolo [3,4-b]pyrazin-5-yl)-amine] | < 1000
 | O=C(O)c1ccc(C=NNc2nc3nonc3nc2Nc2cccc(Cl)c2)cc1 [Example 143] | < 1000
 | COc1cccc(C=NNc2nc3nonc3nc2Nc2ccc(Cl)c(Cl)c2)c1O [Example 192] | < 1000
< 1000 | Clc1ccc(Nc2nc3nonc3nc2NN=Cc2ccc(-c3ccccc3)o2)cc1Cl [Example 195, (3,4-Dichloro-phenyl)-{6-[N′-(5-phenyl-furan-2-ylmethylene)-hydrazino]-[1,2,5]oxadiazolo[3,4-b]pyrazin-5-yl}-amine] | 

Compound | IC50 (SRC kinase) [nM] | IC50 (IGF-1 R) [nM]
Oc1c(Br)cc(Br)cc1C=NNc1nc2nonc2nc1Nc1ccc(Cl)cc1 [Example 30] | < 1000 | < 1000
O=C(O)c1ccc(-c2ccc(C=NNc3nc4nonc4nc3Nc3ccc(F)cc3)o2)cc1 [Example 139] | < 1000 | < 1000
Oc1c(Br)cc(Br)cc1C=NNc1nc2nonc2nc1Nc1cccc(Cl)c1 [Example 151] | < 1000 | < 1000
COc1ccc(O)c(C=NNc2nc3nonc3nc2Nc2ccc(F)c(Cl)c2)c1 [Example 167] | < 1000 | 
